pIC50: −log10 of the molar value. ≈ marks a conversion by molar mass, not a printed value. Like-named read-outs stand apart in the source and are kept apart here.
Key:
[1] = test system: A-549 (Human Lung Cancer Cell Line); experiment: SRB antiproliferative assay, A-549; format: cell-based
Description: (§1) Following an extensive review of the literature, we selected human breast cancer (MCF-7, MDA-MB-231) and lung cancer (A549) cell lines to evaluate the anticancer potential of the synthesized compounds, and some compounds with good anti-proliferation activity were again tested to evaluate their cytotoxic potential on A-549, MCF-7, and MDA-MB-231. The same were also tested on one non-cancerous/normal (HEK-293) cell line. All the cell lines for the required screening were developed in a suitable medium comprising 10% FBS and 2mM L-glutamine. Cancerous and non-cancerous/normal cell lines were selected for the cell proliferation and cytotoxicity assay and maintained with 5% CO2 at 37 °C in a CO2 incubator with 100% relative humidity for one complete day before the addition of experimental drugs.
(§2) Antiproliferative activity through an SRB assay was performed for all the synthesized compounds on A-549 and MCF-7 cell lines. Around 5000 cells/well were quarantined into a 96-well microtiter plate in 100 μL. The synthesized compounds were solubilized in DMSO and diluted to different concentrations before use. The final-drug-concentration aliquots were poured into microtiter wells, and the plates were incubated for 48 h in regular conditions. After adding the final drug concentration, the cells were allowed to set in place and incubated for 60 min. A total of 50 µL of SRB solution (0.4% w/v) in 1% CH3COOH was poured into each well. The plates were then incubated for 20 min at RT. During subsequent staining, the unbounded dye was removed, and the plate reader recorded the eluted bound stain at 540 nm with a 690 nm reference wavelength. The assay was performed precisely using the appropriate reagents and reaction situation, as per the reported procedure. ADR was selected as the reference drug.

[2] = test system: MCF-7 (Human Breast Cancer Cell Line); experiment: SRB antiproliferative assay, MCF-7; format: cell-based
Description: as §1, §2

[3] = target: T1, HDAC1 (Homo sapiens, UniProt Q13547); experiment: HDAC inhibition assay (color de lys ELISA kit), HDAC1; format: biochemical; settings: HeLa nuclear extract as source of HDAC activity
T1 construct: The HeLa nuclear extract was used as a source of HDAC activity; host or cells: HeLa (nuclear extract / cells)
T1 sequence (Q13547 whole entry): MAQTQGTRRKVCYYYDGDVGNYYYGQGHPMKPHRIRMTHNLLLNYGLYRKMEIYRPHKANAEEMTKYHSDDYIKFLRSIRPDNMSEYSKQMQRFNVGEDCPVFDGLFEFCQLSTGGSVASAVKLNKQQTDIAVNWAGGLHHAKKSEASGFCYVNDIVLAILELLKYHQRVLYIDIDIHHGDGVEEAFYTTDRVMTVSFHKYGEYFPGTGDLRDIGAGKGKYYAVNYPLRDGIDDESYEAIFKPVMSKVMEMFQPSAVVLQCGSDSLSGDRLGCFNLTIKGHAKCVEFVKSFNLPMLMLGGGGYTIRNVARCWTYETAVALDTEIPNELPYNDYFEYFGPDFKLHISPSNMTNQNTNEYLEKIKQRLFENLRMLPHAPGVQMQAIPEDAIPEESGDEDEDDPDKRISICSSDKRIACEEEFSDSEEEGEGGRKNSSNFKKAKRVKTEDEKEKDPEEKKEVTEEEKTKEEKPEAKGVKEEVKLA
Description: (§3) SAHA served as the assay’s positive control. The HeLa nuclear extract was used as a source of HDAC activity. The trypsinized HeLa cells were tallied, put into 96-well microtiter plates, and nurtured. Samples and the standard were placed in wells at a concentration of 100 µL. The culture environment was maintained as per the procedure. 3,3′,5,5′-tetramethylbenzidine (TMB) was included for visualization. Finally, 50 µL of halt solution was smeared. The samples and different SAHA concentrations (0.01, 0.1, 1, 10 μM) were introduced to the appropriate well and left for 72 h. BioTek Epoch (Winooski, VT, USA) microplate reader was used to quantify optical density at 450 nm. The Graph Pad Prism 5 helped to determine the IC50 values.

[4] = target: T2, HDAC6 (Homo sapiens, UniProt Q9UBN7); experiment: HDAC inhibition assay (color de lys ELISA kit), HDAC6; format: biochemical; settings: HeLa nuclear extract as source of HDAC activity
T2 construct: The HeLa nuclear extract was used as a source of HDAC activity; host or cells: HeLa (nuclear extract / cells)
T2 sequence (Q9UBN7 1-1215): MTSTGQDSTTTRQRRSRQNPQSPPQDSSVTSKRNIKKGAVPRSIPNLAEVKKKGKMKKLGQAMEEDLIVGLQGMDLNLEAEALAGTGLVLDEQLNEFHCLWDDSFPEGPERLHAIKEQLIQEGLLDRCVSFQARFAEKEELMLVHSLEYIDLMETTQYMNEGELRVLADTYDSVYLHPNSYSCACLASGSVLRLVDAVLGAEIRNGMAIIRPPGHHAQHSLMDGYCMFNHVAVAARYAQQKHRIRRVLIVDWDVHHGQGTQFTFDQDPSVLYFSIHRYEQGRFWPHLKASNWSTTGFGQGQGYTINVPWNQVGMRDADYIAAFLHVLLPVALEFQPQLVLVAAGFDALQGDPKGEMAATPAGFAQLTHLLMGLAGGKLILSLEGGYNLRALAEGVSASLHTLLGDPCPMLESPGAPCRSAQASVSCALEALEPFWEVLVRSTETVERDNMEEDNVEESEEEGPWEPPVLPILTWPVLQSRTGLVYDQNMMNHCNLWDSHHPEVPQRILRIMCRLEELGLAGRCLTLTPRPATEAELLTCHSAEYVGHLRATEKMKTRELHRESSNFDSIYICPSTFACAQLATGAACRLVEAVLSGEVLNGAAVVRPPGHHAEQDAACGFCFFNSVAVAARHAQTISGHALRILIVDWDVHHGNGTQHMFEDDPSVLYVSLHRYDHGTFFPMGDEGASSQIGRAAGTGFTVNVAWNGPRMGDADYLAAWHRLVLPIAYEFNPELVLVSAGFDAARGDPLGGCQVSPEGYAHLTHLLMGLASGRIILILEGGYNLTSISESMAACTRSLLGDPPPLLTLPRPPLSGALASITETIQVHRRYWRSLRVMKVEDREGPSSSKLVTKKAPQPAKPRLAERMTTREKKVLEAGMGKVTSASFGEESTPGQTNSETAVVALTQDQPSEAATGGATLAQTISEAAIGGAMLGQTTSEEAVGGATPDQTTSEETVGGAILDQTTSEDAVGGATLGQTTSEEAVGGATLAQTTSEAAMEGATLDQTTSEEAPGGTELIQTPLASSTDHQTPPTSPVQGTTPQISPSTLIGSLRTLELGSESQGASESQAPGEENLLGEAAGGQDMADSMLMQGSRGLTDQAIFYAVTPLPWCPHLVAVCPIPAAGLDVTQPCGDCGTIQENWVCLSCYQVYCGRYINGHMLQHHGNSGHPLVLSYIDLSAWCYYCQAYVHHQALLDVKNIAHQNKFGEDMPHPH
Description: as §3

[5] = Homo sapiens, A549, A-549, 48 h, read-out: GI50
[6] = Homo sapiens, MCF7, MCF-7, 48 h, read-out: GI50

SMILES | GI50 ([1]; A-549, 48 h) | GI50 ([2]; MCF-7, 48 h) | GI50 [1, 5] | GI50 [2, 6] | pIC50 [3] | pIC50 [4]
COc1cccc2c1C(=O)c1c(O)c3c(c(O)c1C2=O)C[C@@](O)(C(=O)CO)C[C@@H]3O[C@H]1C[C@H](N)[C@H](O)[C@H](C)O1 [ADR, reference compound] | <10 µg/mL | <10 µg/mL | – | – | – | –
COc1ccc(-c2cnn(-c3ccc(C(=O)CCC(=O)NO)cc3)n2)cc1 [VI(a), N-Hydroxy-4-(4-(4-(4-methoxyphenyl)-2H-1,2,3-triazol-2-yl)phenyl)-4-oxobutanamide] | – | – | 19.4 µg/mL (≈ 52.8 µM) | 15.1 µg/mL (≈ 41.3 µM) | – | –
O=C(CCC(=O)c1ccc(-n2ncc(-c3ccc([N+](=O)[O-])cc3)n2)cc1)NO [VI(b), N-Hydroxy-4-(4-(4-(4-nitrophenyl)-2H-1,2,3-triazol-2-yl)phenyl)-4-oxobutanamide] | – | – | < 10 µg/mL | < 10 µg/mL | 4.68 | 4.62
Cc1ccc(-c2cnn(-c3ccc(C(=O)CCC(=O)NO)cc3)n2)cc1 [VI(d), N-Hydroxy-4-oxo-4-(4-(4-(p-tolyl)-2H-1,2,3-triazol-2-yl)phenyl)butanamide] | – | – | 14.7 µg/mL (≈ 41.9 µM) | 12.9 µg/mL (≈ 36.8 µM) | – | –
COc1ccc(-c2cnn(-c3ccc(C(=O)CCC(=O)NO)cc3)n2)cc1OC [VI(g), 4-(4-(4-(3,4-Dimethoxyphenyl)-2H-1,2,3-triazol-2-yl)phenyl)-N-hydroxy-4-oxobutanamide] | – | – | 53 µg/mL (≈ 134 µM) | 15 µg/mL (≈ 37.8 µM) | – | –
O=C(CCCCCn1ncc(-c2ccc(Cl)cc2)n1)NO [VI(h), 6-(4-(4-Chlorophenyl)-2H-1,2,3-triazol-2-yl)-N-hydroxyhexanamide] | – | – | > 80 µg/mL | 50 µg/mL (≈ 162 µM) | – | –
O=C(CCCCCn1ncc(-c2ccc(O)cc2)n1)NO [VI(j), N-Hydroxy-6-(4-(4-hydroxyphenyl)-2H-1,2,3-triazol-2-yl)hexanamide] | – | – | 50 µg/mL (≈ 172 µM) | 17 µg/mL (≈ 58.6 µM) | – | –
Cc1ccc(-c2cnn(CCCCCC(=O)NO)n2)cc1 [VI(k), N-Hydroxy-6-(4-(p-tolyl)-2H-1,2,3-triazol-2-Yl)hexanamide] | – | – | > 80 µg/mL | 14.9 µg/mL (≈ 51.5 µM) | – | –
O=C(CCc1ccc(-n2ncc(-c3ccc(O)cc3)n2)cc1)NO [VI(n), N-Hydroxy-3-(4-(4-(4-hydroxyphenyl)-2H-1,2,3-triazol-2-yl)phenyl)propanamide] | – | – | > 80 µg/mL | > 80 µg/mL | – | –

Continued, values first:

GI50 ([1]; A-549, 48 h) | GI50 ([2]; MCF-7, 48 h) | GI50 [1, 5] | GI50 [2, 6] | pIC50 [3] | pIC50 [4] | SMILES
– | – | < 10 µg/mL | < 10 µg/mL | 4.67 | 4.50 | O=C(CCC(=O)c1ccc(-n2ncc(-c3ccc(Cl)cc3)n2)cc1)NO [VI(c), 4-(4-(4-(4-Chlorophenyl)-2H-1,2,3-triazol-2-yl)phenyl)-N-hydroxy-4-oxobutanamide]
– | – | < 10 µg/mL | < 10 µg/mL | 4.56 | 4.73 | O=C(CCC(=O)c1ccc(-n2ncc(-c3ccc(O)cc3)n2)cc1)NO [VI(e), N-Hydroxy-4-(4-(4-(4-hydroxyphenyl)-2H-1,2,3-triazol-2-yl)phenyl)-4-oxobutanamide]
– | – | 26.9 µg/mL (≈ 76 µM) | < 10 µg/mL | – | – | O=C(CCC(=O)c1ccc(-n2ncc(-c3ccc(F)cc3)n2)cc1)NO [VI(f), 4-(4-(4-(4-Fluorophenyl)-2H-1,2,3-triazol-2-yl)phenyl)-N-hydroxy-4-oxobutanamide]
– | – | > 80 µg/mL | > 80 µg/mL | – | – | O=C(CCc1ccc(-n2ncc(-c3ccc(Cl)cc3)n2)cc1)NO [VI(l), 3-(4-(4-(4-Chlorophenyl)-2H-1,2,3-triazol-2-Yl)phenyl)-N-hydroxypropanamide]
– | – | > 80 µg/mL | > 80 µg/mL | – | – | Cc1ccc(-c2cnn(-c3ccc(CCC(=O)NO)cc3)n2)cc1 [VI(m), N-Hydroxy-3-(4-(4-(p-tolyl)-2H-1,2,3-triazol-2-yl)phenyl)propanamide]
– | – | 62 µg/mL (≈ 183 µM) | > 80 µg/mL | – | – | COc1ccc(-c2cnn(-c3ccc(CCC(=O)NO)cc3)n2)cc1 [VI(o), N-Hydroxy-3-(4-(4-(4-methoxyphenyl)-2H-1,2,3-triazol-2-Yl)phenyl)propanamide]

— PMC12389269, “Heteroaryl-Capped Hydroxamic Acid Derivatives with Varied Linkers: Synthesis and Anticancer Evaluation with Various Apoptosis Analyses in Breast Cancer Cells, Including Docking, Simulation, DFT, and ADMET Studies” (Pharmaceuticals, 2025)
